pIC50: −log10 of the molar value. Where two headings read alike, the source gives them in different places.
Experiments:
[1] = target: TrkA (histidine-tagged recombinant human TrkA, cytoplasmic domain) (Homo sapiens (Human), UniProt P04629); experiment: TrkA ELISA Assay; format: biochemical; conditions: Table 1; ELISA, 500 μM ATP; read-out: TrkA Enzyme IC50
Protocol: An enzyme-linked immunosorbant assay (ELISA) was used to assess TrkA kinase activity in the presence of inhibitors. Immulon 4HBX 384-well microtiter plates (Thermo part #8755) were coated with a 0.025 mg/mL solution of poly (Glu, Ala, Tyr; 6:3:1; Sigma P3899). […] The reaction mixture was removed from the plate by washing with PBS containing 0.1% (v/v) Tween 20. The phosphorylated reaction product was detected using 0.2 μg/mL of a phosphotyrosine specific monoclonal antibody (clone PY20) conjugated to horseradish peroxidase in conjunction with the TMB Peroxidase Substrate System (KPL). After the addition of 1M phosphoric acid, the chromogenic substrate color intensity was quantitated via absorbance at 450 nm.

Human Jak2 kinase domain = Human Jak2 kinase domain (Homo sapiens (Human), UniProt O60674); experiment: Jak2 Inhibition Assay (Omnia kinase assay); format: biochemical; conditions: read-out: Jak2 Enzyme IC50
Protocol: The assays described in Examples C, D, E and F for the determination of JAK1, JAK2, JAK3 and Tyk2 kinase activity, respectively, utilized the Omnia® Kinase fluorescence peptide substrate-based technology (Invitrogen). […] The reactions were therefore read at excitation 360 nm and emission was measured at 485 nm every 50 seconds for 45 minutes using a PerkinElmer EnVision Multilabel Plate Reader.
The final buffer conditions for each of the JAK1, JAK2, JAK3 and Tyk2 assays were as follows: 25 mM HEPES, pH 7.4, 10 mM MgCl2, 0.01% Triton X-100 and 1 mM DTT.
Two-μL aliquots of these were transferred to a fresh plate for a ten-fold intermediate dilution with assay buffer. Five-μL aliquots of the diluted compounds were then transferred to 20-μL of assay mixtures described in Examples C, D, E and F for a final concentration of DMSO of 2%. […] For each plate, percent of control (POC) values were calculated for each well according to the following equation:
[formula] • where • Xmax=Average Uninhibited Controls • Xmin=Average Background IC50's were estimated from the POC's using a standard 4-parameter logistic model:
[formula] • where • A=Minimum Y (Bottom Asymptote) • B=Maximum Y (Top Asymptote) • C=EC50 • D=Slope Factor • X=Compound Concentration (nM) • Y=POC
The IC50 is defined as the concentration of inhibitor at which the POC equals 50 for the fitted curve.
Compounds of Formula I were screened for their ability to inhibit Jak2 using the general enzyme inhibition assay method, in which the assay mixture contained 500 μM ATP, 10 μM Omnia® Y7 peptide (Catalog # IVGN KNZ3071C, Invitrogen Corporation, Carlsbad, Calif.) and 4 nM Jak2 in a total volume of 20 μL. Human Jak2 kinase domain comprising amino acids 808-1132 was purchased from Invitrogen Corporation, Carlsbad, Calif. (catalog # IVGN PV4210).

[2] = Table 1, 500 μM ATP, >1000 nM when >50% inhibition not observed at 1000 nM

Sequence of Human Jak2 kinase domain (O60674 808-1132): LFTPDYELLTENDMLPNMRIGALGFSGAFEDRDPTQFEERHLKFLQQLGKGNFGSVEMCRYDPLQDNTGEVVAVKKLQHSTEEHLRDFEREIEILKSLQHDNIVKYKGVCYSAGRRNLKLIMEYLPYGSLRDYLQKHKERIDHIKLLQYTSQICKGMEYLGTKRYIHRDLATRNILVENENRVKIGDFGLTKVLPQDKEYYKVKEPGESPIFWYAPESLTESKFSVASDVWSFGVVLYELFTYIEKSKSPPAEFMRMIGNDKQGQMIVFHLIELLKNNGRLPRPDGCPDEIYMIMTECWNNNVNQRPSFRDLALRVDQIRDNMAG
Sequence of TrkA (histidine-tagged recombinant human TrkA, cytoplasmic domain) (P04629 440-796): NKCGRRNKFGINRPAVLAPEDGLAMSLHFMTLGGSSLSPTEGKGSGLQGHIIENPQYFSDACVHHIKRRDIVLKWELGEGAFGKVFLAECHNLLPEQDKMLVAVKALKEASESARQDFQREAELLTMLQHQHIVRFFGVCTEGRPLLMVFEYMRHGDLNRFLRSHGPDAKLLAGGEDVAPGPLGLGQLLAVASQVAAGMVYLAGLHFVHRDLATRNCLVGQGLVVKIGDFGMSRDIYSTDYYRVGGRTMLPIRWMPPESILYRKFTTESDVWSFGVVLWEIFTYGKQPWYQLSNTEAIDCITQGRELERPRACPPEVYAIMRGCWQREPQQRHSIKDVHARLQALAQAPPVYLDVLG

Which results are given for O=C(N[C@@H]1C2CC[C@@H](C2)[C@@H]1CO)c1cnn2ccc(N3CCC[C@@H]3c3cncc(F)c3)nc12 [Example 138, 5-((R)-2-(5-fluoropyridin-3-yl)pyrrolidin-1-yl)-N-((2R,3S,4S)-3-(hydroxymethyl)bicyclo[2.2.1]heptan-2-yl)pyrazolo[1,5-a]pyrimidine-3-carboxamide]?
pIC50 [1]: 7.46; pIC50 (Human Jak2 kinase domain; [2]): < 6.00

What does the source list for COc1ncc(F)cc1[C@H]1CCCN1c1ccn2ncc(C(=O)NCC(C)(C)O)c2n1 [Example 158, (R)-5-(2-(5-fluoro-2-methoxypyridin-3-yl)pyrrolidin-1-yl)-N-(2-hydroxy-2-methylpropyl)pyrazolo[1,5-a]pyrimidine-3-carboxamide]?
pIC50 [1]: 8.00; pIC50 (Human Jak2 kinase domain; [2]): < 6.00

With O=C(NC1CCC1)c1cnn2ccc(N3CCC[C@@H]3c3cncc(F)c3)nc12 [Example 101, (R)-N-cyclobutyl-5-(2-(5-fluoropyridin-3-yl)pyrrolidin-1-yl)pyrazolo[1,5-a]pyrimidine-3-carboxamide] as the compound, how does the pIC50 [1] read?
Its pIC50 is 7.93.

And the pIC50 (Human Jak2 kinase domain; [2])?
The pIC50 was less than 6.00.

Which results are given for CC1(NC(=O)c2cnn3ccc(N4[C@H](CO)CC[C@@H]4c4cncc(F)c4)nc23)CC1 [Example 214, 5-((2R,5S)-2-(5-fluoropyridin-3-yl)-5-(hydroxymethyl)pyrrolidin-1-yl)-N-(1-methylcyclopropyl)pyrazolo[1,5-a]pyrimidine-3-carboxamide]?
pIC50 [1]: 8.07; pIC50 (Human Jak2 kinase domain; [2]): < 6.00

Which results are given for COc1ncc(F)cc1[C@H]1CCCN1c1ccn2ncc(C(=O)NCCCO)c2n1 [Example 148, (R)-5-(2-(5-fluoro-2-methoxypyridin-3-yl)pyrrolidin-1-yl)-N-(3-hydroxypropyl)pyrazolo[1,5-a]pyrimidine-3-carboxamide]?
pIC50 [1]: 8.96; pIC50 (Human Jak2 kinase domain; [2]): < 6.00

How did the pIC50 [1] turn out when COCC(C)NC(=O)c1cnn2ccc(N3CCCC3c3cncc(F)c3)nc12 [Example 118, 5-((R)-2-(5-fluoropyridin-3-yl)pyrrolidin-1-yl)-N-(1-methoxypropan-2-yl)pyrazolo[1,5-a]pyrimidine-3-carboxamide] was run?
Its pIC50 is 7.65.

And the pIC50 (Human Jak2 kinase domain; [2])?
Its pIC50 is less than 6.00.

Which results are given for CNC(=O)c1cnn2ccc(N3CCC[C@@H]3c3cc(F)cnc3OC)nc12 [Example 153, (R)-5-(2-(5-fluoro-2-methoxypyridin-3-yl)pyrrolidin-1-yl)-N-methylpyrazolo[1,5-a]pyrimidine-3-carboxamide]?
pIC50 [1]: 8.68; pIC50 (Human Jak2 kinase domain; [2]): < 6.00

With O=C(NOCCO)c1cnn2ccc(N3CCC[C@@H]3c3cc(F)cnc3Cl)nc12 [Example 225, (R)-5-(2-(2-chloro-5-fluoropyridin-3-yl)pyrrolidin-1-yl)-N-(2-hydroxyethoxy)pyrazolo[1,5-a]pyrimidine-3-carboxamide] as the compound, how does the pIC50 [1] read?
The pIC50 was 7.28.

What about the pIC50 (Human Jak2 kinase domain; [2]) of the same compound?
The pIC50 was less than 6.00.

How did the pIC50 [1] turn out when O=C(NCCN1CCNC1=O)c1cnn2ccc(N3CCC[C@@H]3c3cc(F)ccc3F)nc12 [Example 24, (R)-5-(2-(2,5-difluorophenyl)pyrrolidin-1-yl)-N-(2-(2-oxoimidazolidin-1-yl)ethyl) pyrazole[1,5-a]pyrimidine-3-carboxamide] was run?
The pIC50 was 8.44.

And the pIC50 (Human Jak2 kinase domain; [2])?
Its pIC50 is less than 6.00.

With Cn1ccc(NC(=O)c2cnn3ccc(N4CCC[C@@H]4c4cc(F)ccc4F)nc23)n1 [Example 6, (R)-5-(2-(2,5-difluorophenyl)pyrrolidin-1-yl)-N-(1-methyl-1H-pyrazol-3-yl)pyrazolo[1,5-a]pyrimidine-3-carboxamide] as the compound, how does the pIC50 [1] read?
The pIC50 was 8.81.

What about the pIC50 (Human Jak2 kinase domain; [2]) of the same compound?
The pIC50 was less than 6.00.

What does the source list for COc1ncc(F)cc1[C@H]1CCCN1c1ccn2ncc(C(=O)NC[C@@H](C)O)c2n1 [Example 157, 5-((R)-2-(5-fluoro-2-methoxypyridin-3-yl)pyrrolidin-1-yl)-N-((R)-2-hydroxypropyl)pyrazolo[1,5-a]pyrimidine-3-carboxamide]?
pIC50 [1]: 8.55; pIC50 (Human Jak2 kinase domain; [2]): < 6.00

Cc1ncc(F)cc1[C@H]1CCCN1c1ccn2ncc(C(=O)NCCO)c2n1 [Example 188, (R)-5-(2-(5-fluoro-2-methylpyridin-3-yl)pyrrolidin-1-yl)-N-(2-hydroxyethyl)pyrazolo[1,5-a]pyrimidine-3-carboxamide] was tested. Which pIC50 [1] did it give?
The pIC50 was 7.08.

What about the pIC50 (Human Jak2 kinase domain; [2]) of the same compound?
Its pIC50 is less than 6.00.

COCCOc1cc(F)cc([C@H]2CCCN2c2ccn3ncc(C(=O)NC4CC4)c3n2)c1 [Example 77, (R)—N-cyclopropyl-5-(2-(3-fluoro-5-(2-methoxyethoxy)phenyl)pyrrolidin-1-yl)pyrazolo[1,5-a]pyrimidine-3-carboxamide] was tested. Which pIC50 [1] did it give?
Its pIC50 is 8.27.

What about the pIC50 (Human Jak2 kinase domain; [2]) of the same compound?
The pIC50 was less than 6.00.

COc1ncc(F)cc1[C@H]1CCCN1c1ccn2ncc(C(=O)NC3CCN(S(C)(=O)=O)CC3)c2n1 [Example 162, (R)-5-(2-(5-fluoro-2-methoxypyridin-3-yl)pyrrolidin-1-yl)-N-(1-(methylsulfonyl)piperidin-4-yl)pyrazolo[1,5-a]pyrimidine-3-carboxamide] was tested. Which pIC50 [1] did it give?
Its pIC50 is 8.66.

What about the pIC50 (Human Jak2 kinase domain; [2]) of the same compound?
Its pIC50 is 6.35.

With O=C(O)CC1CCN(C(=O)c2cnn3ccc(N4CCC[C@@H]4c4cc(F)ccc4F)nc23)CC1 [Example 12, (R)-2-(1-(5-(2-(2,5-difluorophenyl)pyrrolidin-1-yl)pyrazolo[1,5-a]pyrimidine-3-carbonyl)piperidin-4-yl)acetic acid] as the compound, how does the pIC50 [1] read?
Its pIC50 is 6.62.

What about the pIC50 (Human Jak2 kinase domain) of the same compound?
The pIC50 was less than 6.00.

CONC(=O)c1cnn2ccc(N3CCC[C@@H]3c3cc(F)cnc3OC)nc12 [Example 83, (R)-5-(2-(5-fluoro-2-methoxypyridin-3-yl)pyrrolidin-1-yl)-N-methoxypyrazolo[1,5-a]pyrimidine-3-carboxamide] was tested. Which pIC50 [1] did it give?
Its pIC50 is 8.75.

And the pIC50 (Human Jak2 kinase domain)?
Its pIC50 is less than 6.00.

Which results are given for COc1ccc(F)cc1[C@H]1CCCN1c1ccn2ncc(C(=O)NCCN3CCOCC3)c2n1 [Example 54, (R)-5-(2-(5-fluoro-2-methoxyphenyl)pyrrolidin-1-yl)-N-(2-morpholinoethyl)pyrazolo[1,5-a]pyrimidine-3-carboxamide]?
pIC50 [1]: 8.65; pIC50 (Human Jak2 kinase domain): < 6.00

With Cc1ncc(F)cc1[C@H]1CCCN1c1ccn2ncc(C(=O)NC3(CO)CC3)c2n1 [Example 193, (R)-5-(2-(5-fluoro-2-methylpyridin-3-yl)pyrrolidin-1-yl)-N-(1-(hydroxymethyl)cyclopropyl)pyrazolo[1,5-a]pyrimidine-3-carboxamide] as the compound, how does the pIC50 [1] read?
Its pIC50 is 7.81.

What about the pIC50 (Human Jak2 kinase domain; [2]) of the same compound?
The pIC50 was less than 6.00.

With O=C(NC[C@@H](O)CO)c1cnn2ccc(N3CCC[C@@H]3c3cc(F)ccc3F)nc12 [Example 26, 5-((R)-2-(2,5-difluorophenyl)pyrrolidin-1-yl)-N—((R)-2,3-dihydroxypropyl)pyrazolo[1,5-a]pyrimidine-3-carboxamide] as the compound, how does the pIC50 [1] read?
Its pIC50 is 8.89.

And the pIC50 (Human Jak2 kinase domain; [2])?
The pIC50 was less than 6.00.

With O=C(c1cnn2ccc(N3CCC[C@@H]3c3cncc(F)c3)nc12)N1CC(CO)C1 [Example 127, (R)-(5-(2-(5-fluoropyridin-3-yl)pyrrolidin-1-yl)pyrazolo[1,5-a]pyrimidin-3-yl)(3-(hydroxymethyl)azetidin-1-yl)methanone] as the compound, how does the pIC50 [1] read?
The pIC50 was 6.33.

And the pIC50 (Human Jak2 kinase domain; [2])?
Its pIC50 is less than 6.00.

Which results are given for C[C@@H](O)CNC(=O)c1cnn2ccc(N3CCC[C@@H]3c3cncc(F)c3)nc12 [Example 110, 5-((R)-2-(5-fluoropyridin-3-yl)pyrrolidin-1-yl)-N-((R)-2-hydroxypropyl)pyrazolo[1,5-a]pyrimidine-3-carboxamide]?
pIC50 [1]: 7.43; pIC50 (Human Jak2 kinase domain; [2]): < 6.00

What does the source list for C[C@H](NC(=O)c1cnn2ccc(N3CCC[C@@H]3c3cncc(F)c3)nc12)C(F)(F)F [Example 130, 5-((R)-2-(5-fluoropyridin-3-yl)pyrrolidin-1-yl)-N-((S)-1,1,1-trifluoropropan-2-yl)pyrazolo[1,5-a]pyrimidine-3-carboxamide]?
pIC50 [1]: 8.77; pIC50 (Human Jak2 kinase domain; [2]): < 6.00

How did the pIC50 [1] turn out when CC(C)[C@@H](CO)NC(=O)c1cnn2ccc(N3CCC[C@@H]3c3cncc(F)c3)nc12 [Example 121, 5-((R)-2-(5-fluoropyridin-3-yl)pyrrolidin-1-yl)-N-((S)-1-hydroxy-3-methylbutan-2-yl)pyrazolo[1,5-a]pyrimidine-3-carboxamide] was run?
Its pIC50 is 6.74.

What about the pIC50 (Human Jak2 kinase domain; [2]) of the same compound?
Its pIC50 is less than 6.00.

With O=C(NCC(F)(F)F)c1cnn2ccc(N3CCC[C@@H]3c3cncc(F)c3)nc12 [Example 131, (R)-5-(2-(5-fluoropyridin-3-yl)pyrrolidin-1-yl)-N-(2,2,2-trifluoroethyl)pyrazolo[1,5-a]pyrimidine-3-carboxamide] as the compound, how does the pIC50 [1] read?
The pIC50 was 8.30.

And the pIC50 (Human Jak2 kinase domain; [2])?
The pIC50 was less than 6.00.

Source: patent US8791123B2, “Substituted pyrazolo[1,5-a]pyrimidine compounds as Trk kinase inhibitors” (Array Biopharma, Inc., priority 2009, dated 2014)
